According to patent US20060040327A1, “Methods of screening proteins” (priority 2004, published 2006):
pKd: −log10 of the molar value.

Experiments:
[1] = FRET fluorescent response of E. coli expressing DsRed2-GGBP-acGFP to glucose; type: cell-based; conditions: 22 mM glucose; excitation at 475 nm; after accounting for volume displacement
Experimental: The expression of DsRed2-GGBP-acGFP in E. coli was optimized by first inducing with IPTG and then monitoring the fluorescence produced by the DsRed2 and acGFP proteins. Initially, the protein is expressed for 2-6 hours at 37 C and then transferred to a 25 C shaker for up to 6 days. A 1 ml sample of fermentation broth is removed every 24 hrs during the 25 C expression and examined for fluorescence. […] After accounting for volume displacement, there was a 1-4% increase in DsRed2 emission at 22 mM glucose after excitation at 475 nm due to FRET.

[2] = Fluorescence assay of NBD-labeled MBP mutants, maltose; type: binding; conditions: ligand Maltose; for pKd: read-out: Affinity; for QF: ratio of fluorescence intensity with / without ligand
Experimental: (§1) For the mutants selected by FACS, a fluorescence assay was used to determine their maltose affinity. The mutants were labeled by fluorophore coupling of N,N′-dimethyl-N-(iodoacetyl)-N′-(7-nitrobenz-2-oxa-1,3-diazol-4-yl)ethylenediamine (IANBD amide, Molecular Probes) to a cysteine site created by mutagenesis at position 95 (Gilardi et al. (1997) Protein Eng. 10(5):479-86). Briefly, purified protein (1-2 mg/ml) was treated with dithiothreitol for 30 min and then a 10-fold molar excess of freshly prepared solution of IANBD was added. The protein and dye were gently mixed at RT for 4 hrs before the unreacted dye was removed by Nap-5 (Amersham) size-exclusion column chromatography. The efficiency of the coupling was determined by absorbance.
(§2) QF is defined as the ratio of fluorescence intensity in the presence of ligand, divided by the ratio of fluorescence intensity in the absence of ligand.

[3] = Fluorescence assay of NBD-labeled MBP mutants, maltotetraose; type: binding; conditions: ligand maltotetraose; for pKd: read-out: Affinity; for QF: ratio of fluorescence intensity with / without ligand
Experimental: as §1, §2

[4] = Fluorescence assay of NBD-labeled MBP mutants, maltotetraitol; type: binding; conditions: ligand maltotetraitol; for pKd: read-out: Affinity; for QF: ratio of fluorescence intensity with / without ligand
Experimental: as §1, §2

[5] = Fluorescent response and glucose binding curve of IANBD-labeled GGBP mutants; conditions: IANBD-labeled protein; for pKd: read-out: glucose affinity; for increase in fluorescence on binding glucose: fluorescent response to 100 mM glucose
Experimental: GGBP protein from the above examples, expressed from E. coli strain Sg13009 following standard protocols (Qiagen) may be further purified. For example, after induction, bacteria were lysed and purified by IMAC using Talon cobalt^2+ resin (Clontech). The purified protein solution was filtered through 100 kDa and 10 kDa cutoff filters (Millipore). […] The yield from the purification was 10 mg/l and the activity of the protein is stable for at least six months. The selected mutants were expressed, purified, and IANBD-labeled to determine their ability to produce a fluorescent response to 100 mM glucose. Mutant E149C,A213R and E149C,N256R produced a 6- and 2-fold increase in fluorescence on binding glucose, respectively. […] Mutant E149C,L238S was identified through an analogous procedure.
(§3) Combining the preceding mutations provided E149C,A213R,L238S, a protein with glucose binding affinity that is within the physiological range. […] As an illustrative example, the stability of this protein's binding activity was determined by storing solutions of the labeled protein at 25° C. and at 37° C. in a dark environment, and testing aliquots periodically for fluorescent response to glucose. The fluorescence increase for E149C,A213R,L238S upon binding glucose retained 92% of the original fluorescence increase after 3 months at 25° C., and 88% after 3 months at 37° C. Relative stability of the protein's tertiary structure was determined using CD (circular dichroism) spectroscopy of the protein in solution. Spectra were collected in 10 mM PBS, pH 7.4. Each spectrum was the average of 3 accumulations. Thermal denaturation was monitored at 220 nm using a temperature slope of 15° C. per hour over a temperature range of 15-75° C. The Tm (temperature where 50% of the protein was denatured) was 47° C. without glucose and 50° C. in the presence of glucose (see FIG. 2).

[6] = Fluorescence assay of NBD-labeled MBP mutants, maltoside; type: binding; conditions: ligand maltoside; ratio of fluorescence intensity with / without ligand
Experimental: as §1, §2

[7] = Thermal denaturation by CD spectroscopy at 220 nm; type: physicochemical; conditions: 10 mM PBS, pH 7.4, CD 220 nm
From the text: FIG. 2 depicts a plot of the CD spectra ellipticity at 220 nm wavelength of a fluorescently labeled periplasmic binding protein versus temperature. The plot for the protein without ligand is the solid line and the dotted line is the same protein in the presence of its ligand (glucose).
as §3

[8] = Stability of binding activity of labeled protein on storage, fluorescent response to glucose; type: physicochemical
Experimental: as §3

| Substance | pKd [2] | pKd [3] | pKd [4] | pKd ([5]; binding curve) | increase in fluorescence on binding glucose [5] [fold] | other results |
| --- | --- | --- | --- | --- | --- | --- |
| DsRed2-GGBP-acGFP |  |  |  |  |  | increase in DsRed2 emission due to FRET [1]: 1-4% |
| MBP(D14V, K15V, D95C)-NBD [SC-2] | 3.66 | 4.40 | 4.96 |  |  |  |
| E149C,L238S: GGBP mutant binding protein identified through an analogous procedure |  |  |  | 4.10 | 6 |  |
| E149C,N256R: GGBP mutant selected by screening, eliminated from further testing |  |  |  |  | 2 | glucose affinity ([5]; binding curve): did not reach saturation at 100 mM glucose |
| MBP(D14L,K15R,D95C)-NBD [SC-1] | 4.82 | 5.44 | 5.43 |  |  | QF [6]: 5.5; QF [2]: 3.4; QF [3]: 2.1; QF [4]: 2.8 |
| MBP(D95C)-NBD [CONTROL, reference compound] | 6.00 | 6.70 | 5.35 |  |  | QF [6]: 5.5; QF [2]: 5.3; QF [3]: 5.2; QF [4]: 1.2 |
| E149C,A213R: GGBP mutant binding protein identified by the periplasmic screening assay |  |  |  | 3.00 | 6 |  |
| E149C,A213R,L238S: GGBP mutant combining the preceding mutations |  |  |  | 1.92 | > 6 | Tm (temperature where 50% of the protein was denatured) ([7]; in the presence of glucose): 50 °C; Tm (temperature where 50% of the protein was denatured) ([7]; without glucose): 47 °C; fluorescence increase upon binding glucose retained, of the original fluorescence increase ([8]; labeled protein solution stored 3 months at 25° C. in the dark): 92%; fluorescence increase upon binding glucose retained, of the original fluorescence increase ([8]; labeled protein solution stored 3 months at 37° C. in the dark): 88% |
